Reference: publication PMC10687071 (The Journal of Biological Chemistry, 2023)
Numbering of substitutions follows the chain as printed. Several values for one entry are separate records, joined by “and”; a condition that tells them apart may be missing. Identical values can stand only once.

Experiments:
[1] = biological target: T1, Y71R mutant EAG1 channels (Mus musculus, UniProt Q60603, Y71R); test: TEVC recording, imipramine inhibition, Y71R mutant; assay type: cell-based; conditions: Y71R mutant EAG1 channel, +50 mV
T1 construct: expressed in transfected cells; host or cells: Xenopus laevis oocytes injected with cRNA
T1 sequence (Q60603 1-989 Y71R): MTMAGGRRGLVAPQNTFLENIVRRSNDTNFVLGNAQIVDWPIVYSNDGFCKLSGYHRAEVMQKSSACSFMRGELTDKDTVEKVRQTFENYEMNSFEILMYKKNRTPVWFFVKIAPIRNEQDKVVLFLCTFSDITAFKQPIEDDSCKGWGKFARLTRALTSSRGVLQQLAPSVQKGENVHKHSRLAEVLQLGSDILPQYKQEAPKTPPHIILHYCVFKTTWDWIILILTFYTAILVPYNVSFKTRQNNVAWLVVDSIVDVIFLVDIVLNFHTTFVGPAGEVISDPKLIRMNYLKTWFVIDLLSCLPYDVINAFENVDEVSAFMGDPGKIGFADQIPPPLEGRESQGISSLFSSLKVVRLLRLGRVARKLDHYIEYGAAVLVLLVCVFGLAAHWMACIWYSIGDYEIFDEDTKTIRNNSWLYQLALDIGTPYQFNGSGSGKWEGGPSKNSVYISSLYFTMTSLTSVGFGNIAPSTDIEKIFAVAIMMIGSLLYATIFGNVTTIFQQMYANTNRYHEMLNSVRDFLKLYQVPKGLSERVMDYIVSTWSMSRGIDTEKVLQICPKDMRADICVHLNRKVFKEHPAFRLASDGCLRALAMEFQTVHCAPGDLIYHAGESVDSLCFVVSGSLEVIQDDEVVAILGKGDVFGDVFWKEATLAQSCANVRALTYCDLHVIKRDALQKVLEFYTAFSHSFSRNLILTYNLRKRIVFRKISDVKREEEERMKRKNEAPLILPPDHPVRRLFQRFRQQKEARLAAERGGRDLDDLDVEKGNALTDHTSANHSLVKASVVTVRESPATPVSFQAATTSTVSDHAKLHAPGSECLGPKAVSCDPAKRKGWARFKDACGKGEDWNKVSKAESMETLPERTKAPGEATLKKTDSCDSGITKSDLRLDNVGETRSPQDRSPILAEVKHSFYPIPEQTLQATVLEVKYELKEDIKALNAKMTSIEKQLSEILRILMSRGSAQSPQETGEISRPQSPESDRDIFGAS
Excerpt: (§1) The cDNA encoding wild-type (WT) mouse EAG1 channels in pGH19 vector was kindly provided by G. Robertson (University of Wisconsin-Madison, Madison, WI). The mutant ΔPAS EAG1 channel in pGH19 with the deletion of the PAS domain residues 2 to 130 was generated by Bio Basic Inc and verified by DNA sequencing (Genewiz). Mutant EAG1 channels with single amino acid substitutions were generated by Genewiz and verified by DNA sequencing. cRNA was transcribed using the T7 mMessage mMachine kit (Thermo Fisher Scientific). Defolliculated Xenopus laevis oocytes were purchased from Ecocyte Bioscience or Xenopus1 and injected with the cRNA using a Nanoinject II oocyte injector (Drummond).
(§2) For EAG1 current recordings, oocytes were placed into a handmade chamber containing a bath solution for the current recording. The currents were recorded using a TEVC technique with OC-725C amplifier (Warner Instruments) and pClamp11 software (Molecular Devices). The signals were digitized using Digidata 1550 (Molecular Devices). Patch pipettes were pulled from borosilicate glass and had resistances of 0.7 to 1.5 MΩ. The recording (bath) solution contained 96 mM NaCl, 4 mM KCl, 0.1 mM CaCl2, 1.8 mM MgCl2, and 5 mM HEPES, pH 7.5. The pipette solution contained 3 M KCl. […]

[2] = biological target: T2, Y71G mutant EAG1 channels (Mus musculus, UniProt Q60603, Y71G); test: TEVC recording, imipramine inhibition, Y71G mutant; assay type: cell-based; conditions: Y71G mutant EAG1 channel, +50 mV
T2 construct: expressed in transfected cells; host or cells: Xenopus laevis oocytes injected with cRNA
T2 sequence (Q60603 1-989 Y71G): T1 sequence (Q60603 1-989 Y71R) with R71G
Excerpt: as §1, §2

[3] = can reach up; cited from earlier work

**Q.** For `CN(C)CCCN1c2ccccc2CCc2ccccc21` [imipramine], which IC50 [1] is on record?
**A.** 43.4 ± 7.5 µM

**Q.** What about the IC50 [2] of the same compound?
**A.** 26.7 ± 3.2 µM

**Q.** And the “Plasma levels of imipramine observed in patients” value [3]?
**A.** ≤ 300 ng/ml and ≤ 1 μM
